According to PMC4250379 (Neuroscience, 2014):

Target: T1, MD-2 (Homo sapiens, UniProt Q9Y6Y9)
T1 sequence (Q9Y6Y9 19-160): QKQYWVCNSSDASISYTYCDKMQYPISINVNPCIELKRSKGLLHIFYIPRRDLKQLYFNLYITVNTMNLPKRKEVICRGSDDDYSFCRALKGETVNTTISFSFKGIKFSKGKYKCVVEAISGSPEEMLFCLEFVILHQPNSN
Test: quenching of MD-2 intrinsic Tyr/Trp fluorescence
Assay type: binding

## CN1CC[C@]23c4c5ccc(O[C@@H]6O[C@H](C(=O)O)[C@@H](O)[C@H](O)[C@H]6O)c4O[C@H]2[C@@H](O)C=C[C@H]3[C@H]1C5 [M3G, morphine-3-glucuronide]
  Kd: 1500 ± 300 nM
